Experimental data reported in article PMC10776578, “Epstein-Barr virus-driven B cell lymphoma mediated by a direct LMP1-TRAF6 complex” (Nature Communications, 2024).
Like-named read-outs stand apart in the source and are kept apart here.

B1: His-TRAF6_(310-522) (domain or fragment)
chain: DHQIRELTAKMETQSMYVSELKRTIRTLEDKVAEIEAQQCNGIYIWKIGNFGMHLKCQEEEKPVVIHSPGFYTGKPGYKLCMRLHLQLPTAQRCANYISLFVHTMQGEYDSHLPWPFQGTIRLTILDQSEAPVRQNHEEIMDAKPELLAFQRPTIPRNPKGFGYVTFMHLEALRQRTFIKDDTLLVRCEVSTRFDMGSLRREGFQPRSTDAGV
notes: also called His-T6; recombinant TRAF6 wild-type; source: E. coli BL21 Codon Plus RIPL, purified (Ni-NTA)
B4: GST-LMP1_(181-386) (domain or fragment)
chain: LIWMYYHGQRHSDEHHHDDSLPHPQQATDDSGHESDSNSNEGRHHLLVSGAGDGPPLCSQNLGAPGGGPDNGPQDPDNTDDNGPQDPDNTDDNGPHDPLPQDPDNTDDNGPQDPDNTDDNGPHDPLPHSPSDSAGNDGGPPQLTEEVENKGGDQGPPLMTDGGGGHSHDSGHGGGDPHLPTLLLGSSGSGGDDDDPHGPVQLSYYD
notes: also called LMP1 wild-type; LMP1 signalling domain; source: E. coli DH5α or BL21 Codon Plus RIPL, purified (glutathione Sepharose 4B)

Legend:
[1] = system: LMP1-CL 37 B cell lymphoma; assay: CRISPR/Cas9 knockout, cell survival (selection score) of lymphoma LMP1-CL 37; assay type: cell-based, mouse; parameters: key: Venus-neg d7 / mCherry+ d2, normalized to nontargeting gRNA (=1); details: for cell survival (selection score), Figure 6 b: CRISPR guides
Text: (§1) The mouse LMP1 B cell tumors LMP1-CL 37 and 40 were derived from two B cell tumors arising in Rag2^KO;cγ^KO mice inoculated with primary tumor cells from Rag2^KO;cγ^KO mice reconstituted with fetal liver hematopoietic stem cells and progenitor cells from CD19-cre;R26-LMP1^STOPfl;CD3ε^KO animals as described. In these cells, a Venus expression cassette was targeted into the Rosa26 locus by CRISPR/CAS9 as described. Venus-LMP1 B cells were electroporated (Nucleofector, Lonza, human B cell program) with 1 µg of each of two pX330-mcherry-CAS9 vectors[83] encoding varying guide RNAs. In each approach, the first guide RNA (gRNA) targeted Venus while the second gRNA targeted either a nontargeting control sequence not present in the genome, or the gene of interest (GOI). The following gRNA sequences were used: nontargeting (NT) […], ICAM1 […], LMP1 #1 […], LMP1 #2 CCAAAACAGTAGCGCCAAG, LMP1 #3 AATCATCGGTAGCTTGTTG, TRAF6 #1 […], TRAF6 #2 […], TRAF6 #3 […]. The electroporation efficiency, measured as the frequency of mCherry-positive cells on day two after electroporation, was determined by flow cytometry with a Becton Dickinson LSRFortessa flow cytometer. On day seven, the loss of Venus was measured by flow cytometry as a surrogate marker for the number of surviving targeted cells. In the case of a lethal coexpressed GOI gRNA, Venus-negative cells will not survive, and their relative numbers are reduced. The given selection score is defined as the frequency of Venus-negative cells on day seven over the frequency of mCherry-positive cells on day two, normalized to the ratio observed with the nontargeting control gRNA. FACS data were analyzed by FlowJo software. The gating strategy is exemplified in Supplementary Fig. 5b. Animal housing and experiments to generate LMP1 lymphomas were approved by the Landesamt für Gesundheit und Soziales Berlin (G0049/15, G0374/13, and G0135/11). Mice were kept in groups in individually ventilated cages with a 12 h dark-light cycle at 22 ± 2 °C and 55 ± 5% relative humidity. They had access to food and water ad libitum, as well as to nest building material and shelter.

[2] = system: LMP1-CL 40 B cell lymphoma; assay: CRISPR/Cas9 knockout, cell survival (selection score) of lymphoma LMP1-CL 40; assay type: cell-based, mouse; parameters: key: Venus-neg d7 / mCherry+ d2, normalized to nontargeting gRNA (=1); details: for cell survival (selection score), Figure 6 b: CRISPR guides
Text: as §1

GST-CD40_(216-277) E235Q [3] = target: GST-CD40_(216-277) E235Q (human, UniProt P25942 216-277, E235Q)
GST-LMP1_(181-386) Y384D = target: T1, GST-LMP1_(181-386) Y384D (Epstein-Barr virus, UniProt P03230 181-386, Y384D); assay: AlphaScreen or HTRF; AlphaScreen PPI assay: His-TRAF and GST-LMP1, GST-CD40 or GST-RANK in PBS with 0.5% BSA and 0.1% Tween-20, 1 h at RT; standard 300 nM His-TRAF and 100 nM GST protein if not indicated otherwise; for KD His-TRAF6 at different concentrations, fit one site-specific binding with hill slope; details: both partners purified
T1 construct: also called LMP1 Y384D; source: E. coli DH5α or BL21 Codon Plus RIPL, purified (glutathione Sepharose 4B)
T1 sequence: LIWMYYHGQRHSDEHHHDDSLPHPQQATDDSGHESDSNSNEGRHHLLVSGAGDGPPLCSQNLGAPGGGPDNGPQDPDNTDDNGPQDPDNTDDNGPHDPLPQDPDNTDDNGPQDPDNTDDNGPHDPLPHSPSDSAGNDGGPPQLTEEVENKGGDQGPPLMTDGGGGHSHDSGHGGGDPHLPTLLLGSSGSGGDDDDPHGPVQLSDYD

GST-CD40_(216-277) E235Q [4] = target: T2, GST-CD40_(216-277) E235Q (human, UniProt P25942 216-277, E235Q); assay: as above; details: both partners purified
T2 construct: also called CD40 E235Q; E to Q mutation at P0 of CD40; source: E. coli DH5α or BL21 Codon Plus RIPL, purified (glutathione Sepharose 4B)
T2 sequence: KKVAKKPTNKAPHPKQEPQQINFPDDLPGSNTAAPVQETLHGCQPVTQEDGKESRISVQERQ

GST-RANK_(314-355) E346Q = target: T3, GST-RANK_(314-355) E346Q (human, UniProt Q9Y6Q6 314-355, E346Q); assay: as above; details: both partners purified
T3 construct: also called RANK E346Q; E to Q mutation at P0 of RANK; source: E. coli DH5α or BL21 Codon Plus RIPL, purified (glutathione Sepharose 4B)
T3 chain: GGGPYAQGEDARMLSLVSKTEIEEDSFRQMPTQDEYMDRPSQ

His-TRAF6_(310-522) [5] = target: B1; assay: peptide or protein array; peptides spot-synthesised on cellulose membranes in duplicate, incubated with 10 µg per mL purified His-TRAF6 or His-TRAF2 in PBST with 5% milk powder for 4 h at RT; detection by TRAF-specific antibodies; details: both partners purified
His-TRAF6_(310-522) [6] = target: B1; assay: AlphaScreen or HTRF; AlphaScreen PPI assay: His-TRAF and GST-LMP1, GST-CD40 or GST-RANK in PBS with 0.5% BSA and 0.1% Tween-20, 1 h at RT; standard 300 nM His-TRAF and 100 nM GST protein if not indicated otherwise; for KD His-TRAF6 at different concentrations, fit one site-specific binding with hill slope; details: both partners purified
[7] = target: T4, His-TRAF6_(310-522) K469A (human, UniProt Q9Y4K3 310-522, K469A); assay: as above; details: both partners purified
T4 construct: also called TRAF6 K469A; source: E. coli BL21 Codon Plus RIPL, purified (Ni-NTA)
T4 sequence: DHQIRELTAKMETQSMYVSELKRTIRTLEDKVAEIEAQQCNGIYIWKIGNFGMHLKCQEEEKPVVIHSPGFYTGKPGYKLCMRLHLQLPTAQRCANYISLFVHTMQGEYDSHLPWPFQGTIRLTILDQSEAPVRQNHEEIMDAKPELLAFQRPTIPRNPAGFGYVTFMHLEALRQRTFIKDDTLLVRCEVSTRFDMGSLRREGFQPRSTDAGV

GST-LMP1_(181-386) = target: B4; assay: pull-down; details: both partners purified
His-TRAF6_(310-522) [8] = target: T5, His-TRAF6_(310-522) (human, UniProt Q9Y4K3 310-522)
T5 chain: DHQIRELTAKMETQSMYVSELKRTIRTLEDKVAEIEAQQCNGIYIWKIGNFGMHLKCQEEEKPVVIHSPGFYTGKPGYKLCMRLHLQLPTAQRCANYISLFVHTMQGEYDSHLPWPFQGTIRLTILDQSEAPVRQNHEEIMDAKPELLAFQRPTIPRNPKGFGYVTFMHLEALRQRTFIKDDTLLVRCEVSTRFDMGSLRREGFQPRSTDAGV

GTTTGAGCTGAGCGAGATCG (expressed or natural sequence) [ICAM1 gRNA]
cell survival (selection score), Figure 6 b ([1]; replicate 1): 1.189 | cell survival (selection score), Figure 6 b ([1]; replicate 2): 1.169 | cell survival (selection score), Figure 6 b ([1]; replicate 3): 1.095 | cell survival (selection score), Figure 6 b ([1]; replicate 4): 0.9472 | cell survival (selection score), Figure 6 b ([1]; replicate 5): 1.162 | cell survival (selection score), Figure 6 b ([1]; replicate 6): 1.151 | cell survival (selection score), mean ([1]; mean (NT mean = 1), n = 9 LMP1, 10 TRAF6, 6 ICAM1): 1.119 | cell survival (selection score), Figure 6 b ([2]; replicate 1): 1.006 | cell survival (selection score), Figure 6 b ([2]; replicate 2): 1.221 | cell survival (selection score), Figure 6 b ([2]; replicate 3): 0.6632 | cell survival (selection score), Figure 6 b ([2]; replicate 4): 1.293 | cell survival (selection score), Figure 6 b ([2]; replicate 5): 1.126 | cell survival (selection score), mean ([2]; mean (NT mean = 1), n = 9 LMP1, 10 TRAF6, 5 ICAM1): 1.062

B1
Kd (GST-CD40_(216-277) E235Q [3]): 0.0739 µM | fold reduction of affinity against wild-type LMP1 (GST-LMP1_(181-386) Y384D): 1.8 fold | factor of reduction of affinity against wild-type CD40 (GST-CD40_(216-277) E235Q [4]): 4.3 fold | factor of reduction of affinity against wild-type RANK (GST-RANK_(314-355) E346Q): 2 fold

B2: LMP1-derived CTAR2 peptide 8 (amino acids 371-386, 16mer) (peptide)
peptide: GDDDDPHGPVQLSYYD
notes: source: synthetic peptide, spot-synthesised on cellulose membrane
binding result (His-TRAF6_(310-522) [5]): binds

B3: LMP1-derived CTAR2 peptide 11 (amino acids 357-386, 30mer) (peptide)
peptide: PHLPTLLLGSSGSGGDDDDPHGPVQLSYYD
notes: as for B2
binding result (His-TRAF6_(310-522) [5]): binds

B4
Kd (His-TRAF6_(310-522) [6]): 0.0732 µM | binding result [7]: binds

B5: His-TRAF1_(226-416) (domain or fragment)
chain: RERILSLEQRVVELQQTLAQKDQALGKLEQSLRLMEEASFDGTFLWKITNVTRRCHESACGRTVSLFSPAFYTAKYGYKLCLRLYLNGDGTGKRTHLSLFIVIMRGEYDALLPWPFRNKVTFMLLDQNNREHAIDAFRPDLSSASFQRPQSETNVASGCPLFFPLSKLQSPKHAYVKDDTMFLKCIVETST
notes: source: E. coli BL21 Codon Plus RIPL, purified (Ni-NTA)
binding result (GST-LMP1_(181-386)): binds

B6: GST-RANK_(314-355) E346Q (domain or fragment)
chain: GGGPYAQGEDARMLSLVSKTEIEEDSFRQMPTQDEYMDRPSQ
Kd (His-TRAF6_(310-522) [8]): 0.0156 µM

B7: His-TRAF5_(363-557) (domain or fragment)
chain: DQRLAVLEEETNKHDTHINIHKAQLSKNEERFKLLEGTCYNGKLIWKVTDYKMKKREAVDGHTVSIFSQSFYTSRCGYRLCARAYLNGDGSGRGSHLSLYFVVMRGEFDSLLQWPFRQRVTLMLLDQSGKKNIMETFKPDPNSSSFKRPDGEMNIASGCPRFVAHSVLENAKNAYIKDDTLFLKVAVDLTDLEDL
notes: as for B5
binding result (GST-LMP1_(181-386)): binds
